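The compound was tested at five concentrations on cells cultured in 96-well plates, with a 48-hour exposure period. GI50 marks 50% less growth. At the TGI there is no net growth.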
Columns and labels:
Experiment in all cases: NCI anticancer screen, dose series, 48 h
HL-60(TB) leukemia = tested on: HL-60(TB) leukemia
UACC-257 melanoma = tested on: UACC-257 melanoma
HOP-92 NSCLC = tested on: HOP-92 NSCLC
CAKI-1 renal = tested on: CAKI-1 renal
OVCAR-4 ovarian = tested on: OVCAR-4 ovarian
HT29 colon = tested on: HT29 colon
MDA-MB-231 breast = tested on: MDA-MB-231 breast
HCT-116 colon = tested on: HCT-116 colon
HOP-62 NSCLC = tested on: HOP-62 NSCLC
COLO 205 colon = tested on: COLO 205 colon

| SMILES | GI50 (HL-60(TB) leukemia) [µM] | TGI (HL-60(TB) leukemia) [µM] | GI50 (UACC-257 melanoma) [µM] | TGI (UACC-257 melanoma) [µM] | GI50 (HOP-92 NSCLC) [µM] | TGI (HOP-92 NSCLC) [µM] | GI50 (CAKI-1 renal) [µM] | TGI (CAKI-1 renal) [µM] | GI50 (OVCAR-4 ovarian) [µM] | TGI (OVCAR-4 ovarian) [µM] | GI50 (HT29 colon) [µM] | TGI (HT29 colon) [µM] | GI50 (MDA-MB-231 breast) [µM] | TGI (MDA-MB-231 breast) [µM] | GI50 (HCT-116 colon) [µM] | TGI (HCT-116 colon) [µM] | GI50 (HOP-62 NSCLC) [µM] | TGI (HOP-62 NSCLC) [µM] | GI50 (COLO 205 colon) [µM] | TGI (COLO 205 colon) [µM] |
| --- | --- | --- | --- | --- | --- | --- | --- | --- | --- | --- | --- | --- | --- | --- | --- | --- | --- | --- | --- | --- |
| CN(C)c1ccc(C(=O)c2ccc(N(C)C)c(N)c2)cc1N | 1.29 | 9.08 | > 100 | > 100 | 1.46 | > 70.4 | 3.02 | > 43.3 | 6.26 | > 100 | 1.14 | 19.2 | 5.81 | > 77.6 | 2.4 | 31.3 | 5.91 | > 100 | 2.32 | 18.5 |
| CN(C)C(=S)NN=C(c1ccccn1)c1ccccn1 | < 0.0479 |  | < 0.012 | 2.51 |  | > 86.6 | < 0.0127 | 6.59 | < 0.01 | > 83.1 | < 0.01 | > 100 | 0.0412 | 27.8 | < 0.01 | 11 | < 0.01 | 0.0273 | < 0.01 | 11.8 |
| CCCCCCCCCCCCCC[P+](CCCCCC)(CCCCCC)CCCCCC | 0.0303 | 0.0966 | 0.0755 | 0.79 | 0.0299 | 0.423 | 0.236 | 0.771 | 0.126 |  | 0.0527 | 3.26 | 0.0596 | 1.49 | 0.0606 | > 100 | 0.229 |  | 0.144 | 2.08 |
| O=C(Nc1ccc(Cl)cc1)c1cc2c(cc1O)[nH]c1ccccc12 | 4.43 | > 100 | 2.48 | 6.66 | 3.18 | 12.5 | 2.26 | 6.02 | 4.66 | 17.6 | 5.08 | 17.9 | 2.24 | 6.94 | 2.95 | 10.3 | 2.8 | 6.6 | 2.39 | 5.53 |
| CC(=N\O)/C(C)=N/O.CC(=N\O)/C(C)=N/O.CC(=N\O)/C(C)=N/O.CC(=N\O)/C(C)=N/O.[Cu].[Cu] | 26.4 | 44.4 | 20.2 | 34.5 | 18.4 | 32.8 | 20.3 | 34.6 | 20.4 | 35.9 | 17.7 | 35.4 | 20.3 | 35.6 | 19.2 | 35.6 | 24.7 | 64.8 | 18.8 | 34 |
| NS(=O)(=O)c1ccc(C2C3=C(CCCC3=O)OC3=C2C(=O)c2ccccc2C3=O)cc1 (stereo unspecified) | 0.254 | 0.559 | 0.275 | 0.922 | 0.847 | 2.48 | 1.74 | 3.2 | 0.19 | 0.824 | 1.07 | 5.17 | 0.318 | 0.938 | 0.253 | 0.725 | 1.49 | 2.91 | 0.348 | 1.29 |
| O=Nc1c(-c2cccc([N+](=O)[O-])c2)nc2cnccn12 |  | > 100 |  | 41 |  | 38.4 |  | 43 |  | 41.4 |  | 40.1 |  | 26.7 |  | 18.8 |  | 90.1 |  | 66.7 |
| O=c1[nH]cnc2c1nnn2C1OC(CO)C(O)C1O (stereo unspecified) | 0.617 | > 43.9 | 12.3 | > 100 | 1.66 | > 100 | 0.735 | > 45.1 | 0.416 | 37.6 | 2.15 | > 100 | 4.49 | > 100 | 3.88 | > 100 | 2.67 | > 100 | 1.44 | 9.94 |

Reference: PubChem BioAssay (NCI)
